Laboratory results as given in patent US11365204B2, “Substituted dihydrothienopyrimidines and their use as phosphodiesterase inhibitors” (UNION therapeutics A/S, priority 2017, dated 2022).

Legend:
[1] = target: human PDE4D catalytic domain (UniProt no. Q08499 [S380-L740]) (Homo sapiens (Human), UniProt Q08499); test: PDE4 assay (TR-FRET, cAMP hydrolysis); assay type: biochemical; conditions: read-out: PDE4 IC50 range
In short: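 The human PDE4D catalytic domain (S380-L740) was incubated with unlabelled plus FAM-labelled cAMP and titrated compound, briefly. Product AMP was detected by Tb-nanoparticle TR-FRET. IC50 (nM) came from Tb-normalized signal scaled between DMSO and 10 microM reference-inhibitor controls.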

[2] = tested on: Human peripheral blood mononuclear cells (PBMC); test: TNF-α release from LPS-stimulated PBMC; assay type: cell-based; conditions: Lipopolysaccharide 1 microg/ml, 18 hours, AlphaLISA, read-out: TNF-α IC50 range
In short: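 Thawed human PBMC in serum-free buffer with 0.5% human serum albumin were stimulated with 1 microg/ml LPS alongside titrated compound for 18 h at 37 °C. Supernatant TNFα was measured by AlphaLISA at 615 nm, and IC50 was derived relative to LPS-only and 10 microM reference PDE4 inhibitor controls.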

Chain of human PDE4D catalytic domain (Q08499 380-740): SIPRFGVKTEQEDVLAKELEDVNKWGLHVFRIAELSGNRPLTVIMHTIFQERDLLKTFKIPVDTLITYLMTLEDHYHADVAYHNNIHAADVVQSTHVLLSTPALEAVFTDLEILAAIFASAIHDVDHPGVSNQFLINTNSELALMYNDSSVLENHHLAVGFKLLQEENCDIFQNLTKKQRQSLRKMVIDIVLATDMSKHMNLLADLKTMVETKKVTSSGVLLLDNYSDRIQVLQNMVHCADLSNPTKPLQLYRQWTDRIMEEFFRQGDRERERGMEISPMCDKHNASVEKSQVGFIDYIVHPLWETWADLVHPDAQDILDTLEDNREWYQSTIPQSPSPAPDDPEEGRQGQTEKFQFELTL

Row | SMILES | IC50 [1] | IC50 [2]
1 | CC(C)S(=O)(=O)c1ccc(C(=O)OC2CN(c3nc4c(c(N(C)C5CCOCC5)n3)[S+]([O-])CC4)C2)cc1 (stereo not drawn) [Example 60, [1-[4-[methyl(tetra-hydropyran-4-yl)amino]-5-oxido-6,7-dihydro-thieno[3,2-d]pyrimidin-5-ium-2-yl]azetidin-3-yl] 4-isopropylsulfonyl-benzoate] | < 100 nM | < 100 nM
2 | CN(c1nc(N2CC(OC(=O)c3ccc(C(=O)N4CCOCC4)cc3)C2)nc2c1[S+](O)CC2)C1CCOCC1 (stereo not drawn) [Example 61, [1-[4-[methyl(tetra-hydropyran-4-yl)amino]-5-oxido-6,7-dihydro-thieno[3,2-d]pyrimidin-5-ium-2-yl]azetidin-3-yl] 4-(morpholine-4-carbonyl)benzoate] | < 100 nM | < 100 nM
3 | CN(c1nc(N2CC(OC(=O)c3ccc(S(=O)(=O)C4CCCC4)cc3)C2)nc2c1[S+]([O-])CC2)C1CCOCC1 (stereo not drawn) [Example 62, [1-[4-[methyl(tetra-hydropyran-4-yl)amino]-5-oxido-6,7-dihydro-thieno[3,2-d]pyrimidin-5-ium-2-yl]azetidin-3-yl] 4-cyclopentylsulfonyl-benzoate] | < 100 nM | < 100 nM
4 | CN(c1nc(N2CC(OC(=O)c3cccnc3)C2)nc2c1[S@+](O)CC2)C1CCOCC1 [Example 63, [1-[(5R)-4-[methyl-(tetrahydropyran-4-yl)amino]-5-oxido-6,7-dihydrothieno[3,2-d]pyrimidin-5-ium-2-yl]azetidin-3-yl] pyridine-3-carboxylate] | 100 to 500 nM | < 100 nM
5 | Cc1ccc(C(=O)OC2CN(c3nc4c(c(N(C)C5CCOCC5)n3)[S@+](O)CC4)C2)cc1 [Example 64, [1-[(5R)-4-[methyl-(tetrahydropyran-4-yl)amino]-5-oxido-6,7-dihydrothieno[3,2-d]pyrimidin-5-ium-2-yl]azetidin-3-yl] 4-methylbenzoate] | < 100 nM | < 100 nM
6 | O=C(OC1CN(c2nc3c(c(NC4CC5(COC5)C4)n2)[S+](O)CC3)C1)c1cscn1 (stereo not drawn) [Example 66, [1-[4-(6-oxaspiro[3.3]-heptan-2-ylamino)-5-oxido-6,7-dihydrothieno-[3,2-d]pyrimidin-5-ium-2-yl]azetidin-3-yl] thiazole-4-carboxylate] | < 100 nM | < 100 nM
7 | O=C(OC1CN(c2nc3c(c(NC4CC5(COC5)C4)n2)[S+]([O-])CC3)C1)C1CCOCC1 (stereo not drawn) [Example 67, [1-[4-(6-oxaspiro[3.3]-heptan-2-ylamino)-5-oxido-6,7-dihydro-thieno[3,2-d]pyrimidin-5-ium-2-yl]azetidin-3-yl] tetrahydropyran-4-carboxylate] | < 100 nM | < 100 nM
8 | CC(=O)N1CC[C@H](Nc2nc(N3CC(OC(=O)c4cscn4)C3)nc3c2[S@+](O)CC3)C1 [Example 73, [1-[4-[[(3S)-1-acetyl-pyrrolidin-3-yl]amino]-5-oxido-6,7-dihydro-thieno[3,2-d]pyrimidin-5-ium-2-yl]azetidin-3-yl]thiazole-4-carboxylate] | < 100 nM | 100 to 500 nM
9 | CC(=O)N1CC[C@H](Nc2nc(N3CC(OC(=O)C4CCOCC4)C3)nc3c2[S@+](O)CC3)C1 [Example 74, [1-[4-[[(3S)-1-acetyl-pyrrolidin-3-yl]amino]-5-oxido-6,7-dihydro-thieno[3,2-d]pyrimidin-5-ium-2-yl]azetidin-3-yl]tetrahydropyran-4-carboxylate] | < 100 nM | 100 to 500 nM
10 | CC(=O)N1CC[C@@H](Nc2nc(N3CC(OC(=O)C4CCOCC4)C3)nc3c2[S@+](O)CC3)C1 [Example 75, [1-[4-[[(3R)-1-acetyl-pyrrolidin-3-yl]amino]-5-oxido-6,7-dihydro-thieno[3,2-d]pyrimidin-5-ium-2-yl]azetidin-3-yl] tetrahydropyran-4-carboxylate] | > 500 nM | > 500 nM
11 | CC(=O)N1CCC(Nc2nc(N3CC(OC(=O)c4cscn4)C3)nc3c2[S+](O)CC3)CC1 (stereo not drawn) [Example 76, [1-[4-[(1-acetyl-4-piperidyl)amino]-5-oxido-6,7-dihydrothieno[3,2-d]pyrimidin-5-ium-2-yl]-azetidin-3-yl] thiazole-4-carboxylate] | 100 to 500 nM | > 500 nM
12 | CC(=O)N1CCC(Nc2nc(N3CC(OC(=O)C4CCOCC4)C3)nc3c2[S+](O)CC3)CC1 (stereo not drawn) [Example 77, [1-[4-[(1-acetyl-4-piperidyl)amino]-5-oxido-6,7-dihydrothieno[3,2-d]pyrimidin-5-ium-2-yl]azetidin-3-yl] tetra-hydropyran-4-carboxylate] | 100 to 500 nM | 100 to 500 nM
